{
  "source": "paper PMC3788796",
  "about": "“The Antimicrobial Domains of Wheat Puroindolines Are Cell-Penetrating Peptides with Possible Intracellular Mechanisms of Action” (PLoS ONE, 2013)",
  "key": {"[1]": {"assay": "Calcein dye leakage from mammalian-mimicking LUVs", "assay_type": "biochemical", "settings": "for % Calcein leakage from DOPC LUVs: LUVs 10 µM phospholipid, 10 mM Tris, 100 mM NaCl pH 7.4, 5 min, fluorescence 496/515 nm, no-peptide control 28.0, average of duplicate experiments", "description": "A calcein leakage assay as previously described was performed to determine the effects of PIN-based peptides on the permeability of synthetic large unilamellar vesicles (LUVs), designed to mimic bacterial and mammalian cell membranes. The phospholipids used were DOPC (1,2-dioleoyl-sn-glycero-3-phosphocholine), with zwitterionic head groups and DOPG (1,2-dioleoyl-sn-glycerol-3-[phosphor-rac-(1-glycerol)]), with negatively charged headgroups (Avanti® Polar lipids, Alabaster, USA). These were used to make DOPC:DOPG (1∶3) LUVs to mimic bacterial cell membranes, or DOPC only, to mimic mammalian cell membranes. Calcein-entrapped LUVs were prepared by the extrusion method using an Avanti mini extrusion apparatus (Avanti® Polar Lipids, Alabaster, USA). The DOPC:DOPG (a 1∶3 mixture) or DOPC were dissolved in chloroform (25 mg/mL) and aliquoted into glass test tubes to give a concentration of 2.6 mM when resuspended in 2 mL buffer. Chloroform was evaporated under a stream of N2 and the lipid films were dried overnight under vacuum. The films were then resuspended in 2.0 mL of 70 mM calcein buffer (in 10 mM Tris-HCl, pH 7.4) and incubated at room temperature for 30 minutes. To increase entrapment of the dye, five repeated freeze\\thaw cycles were used by placing the vial in liquid N2 and then a warm water bath (37°C). The lipid mixture was then extruded through the mini-extruder 10 times through two stacked 0.1 µm pore-size filters. Free calcein was removed by centrifugation (10, 000×g, 10 min) three times and washing with 10 mM Tris, 100 mM NaCl buffer (pH 7.4). Standards of phosphorus (inorganic P; Pi) were prepared (0.05–1.5 mg/mL) using KH2PO4 and read at 820 nm and a linear standard curve was generated (Figure S1 in File S1). The phospholipid concentration of the vesicle preparations was determined by a total phosphorus assay. The assay reagent was prepared fresh by mixing 1 part of 1% ascorbic acid with 6 parts of 0.42% ammonium molybdate•4H2O in H2SO4 and stored on ice. 7 µL of it was added to 3 µL of vesicle suspensions and incubated for 20 min at 45°C. […] The standard curve of phosphorus standards (Figure S1 in File S1) was used to determine the Pi concentration in a LUV preparation, and this was converted to phospholipid concentration (Table S1 in File S1) to adjust the preparations to the required 10 µM phospholipid concentration prior to peptide treatment.\nThe calcein-filled LUVs were diluted with 10 mM Tris, 100 mM NaCl buffer (pH 7.4) to a final phospholipid concentration of 10 µM. The experiments were performed in a Varian Cary Eclipse fluorescence spectrophotometer with excitation and emission wavelengths of 496 nm and 515 nm, slit widths of […] and a PMT detector of 600 V. The peptides (PuroA, Pina-M, Pina-W→F and PuroB) were added to LUVs to a final peptide concentration of 8–125 µg/mL in 100 µL volumes and the fluorescence (F) monitored for 5 min at 60 s intervals. The total calcein fluorescence (FT) was determined by addition of 1.0% Triton X100. The dye leakage was calculated as % Leakage = ((F – F0)/(FT – F0)), F0 being fluorescence of each sample at T = 0."}, "[2]": {"tested_on": "Saccharomyces cerevisiae (ATCC 287)", "assay": "MIC of the peptides against yeast cells", "assay_type": "cell-based", "settings": "PDB, 96-well two-fold dilution 250 to 2 µg/mL, 0.5–2×10^3 cells/mL, overnight 30°C, growth observed visually", "description": "Saccharomyces cerevisiae (ATCC 287) was grown in Potato Dextrose Broth (PDB) overnight at 30°C with shaking at 220 rpm. The cultures were vortexed vigorously and the cell suspension adjusted to 1–5×10^6 cells/mL with PDB (McFarland standard 0.5) and then diluted 1∶200 with PDB to a final concentration of 0.5–2×10^3 cells/mL [37]. The MIC assays were carried out in 96-well plates as described previously. Peptides (PuroA, Pina-M, Pina-W→F and PuroB) in 25 µL volumes were added to the first empty well and a two-fold dilution was carried out across each row with a starting peptide concentration of 250 µg/mL and a final one of 2 µg/mL. Test wells were subsequently inoculated with 75 µL yeast cells (0.5–2×10^3 cells/mL) and incubated overnight at 30°C. Negative control (no peptide) and positive control (fungicide Mycobutanil) wells were also prepared. The MIC was defined as the lowest concentration of the peptide required to inhibit fungal growth, observed visually."}, "[3]": {"tested_on": "S. cerevisiae cells", "assay": "Propidium iodide uptake by yeast cells", "assay_type": "cell-based, Saccharomyces cerevisiae", "settings": "for % fluorescent cells (propidium iodide uptake): 1 h 30°C in PBS pH 7.4, PI 6 µg/mL 5 min, no-peptide control 5.7, average of 4 fields, two independent experiments", "description": "S. cerevisiae was grown overnight at 30°C in 100 mL PDB and the cells collected by centrifugation and resuspended in Phosphate Buffered Saline (PBS: 137 mM NaCl, 2.7 mM KCl, 8 mM Na2HPO4, 1.46 mM KH2PO4; pH 7.4) to ∼1.5×10^7 cells/mL (OD600 = 0.6–0.8). 75 µL of the suspension was incubated with 25 µL of stock solutions of PuroA, Pina-M, Pina-W→F, PuroB and indolicidin (to give a final peptide concentration of 64, 125, 250 or 500 µg/mL), or with PBS (for no-peptide controls) for 1 h at 30°C, followed by staining with propidium iodide (PI) as described. PI stock solution (60 µg/mL) was prepared in MilliQ water and stored in dark at −20°C. It was diluted to 12 µg/mL before use, mixed 1∶1 with peptide-treated or untreated yeast cells (to final PI concentration 6 µg/mL), and the samples incubated in the dark for 5 min. A 10 µL aliquot of these was examined using a Nikon Eclipse 50 i fluorescence microscope with 561 nm excitation and 630/22 emission filter, at 400×magnification. The photomicrographs were taken under light and fluorescence for each field. Five randomly selected fields were recorded and scored for each sample."}, "[4]": {"tested_on": "E. coli cells", "settings": "data from previous work; cited from earlier work"}},
  "note": "Values joined by “and” are separate entries in the source; they are usually repeats but may differ in a detail not shown here. Equal entries are not always repeated.",
  "data": [
    {"substance": "FPVTFRFFKFFKG-NH2 [Pina-W→F, PuroA-based peptide with all Trps substituted with Phe residues]", "values": [
      {"measurement": "dye leakage from the DOPC LUVs (in words)", "setting": "[1]; over all tested concentrations, even at high concentration", "value": "no significant leakage"},
      {"measurement": "% Calcein leakage from DOPC LUVs", "setting": "[1]; peptide 8 µg/mL", "value": 28.0, "unit": "%"},
      {"measurement": "% Calcein leakage from DOPC LUVs", "setting": "[1]; peptide 16 µg/mL", "value": 27.0, "unit": "%"},
      {"measurement": "% Calcein leakage from DOPC LUVs", "setting": "[1]; peptide 32 µg/mL", "value": 27.0, "unit": "%"},
      {"measurement": "% Calcein leakage from DOPC LUVs", "setting": "[1]; peptide 64 µg/mL", "value": 31.0, "unit": "%"},
      {"measurement": "% Calcein leakage from DOPC LUVs", "setting": "[1]; peptide 125 µg/mL (highest for PuroA, Pina-M, Pina-W→F)", "value": 36.0, "unit": "%"},
      {"measurement": "MIC against S. cerevisiae", "setting": "[2]", "value": 250, "unit": "µg/mL"},
      {"measurement": "% fluorescent cells (propidium iodide uptake)", "setting": "[3]; peptide 64 µg/mL", "value": 56.5, "unit": "%"},
      {"measurement": "% fluorescent cells (propidium iodide uptake)", "setting": "[3]; peptide 125 µg/mL", "value": 72.3, "unit": "%"},
      {"measurement": "% fluorescent cells (propidium iodide uptake)", "setting": "[3]; peptide 250 µg/mL", "value": 100, "unit": "%"},
      {"measurement": "% fluorescent cells (propidium iodide uptake)", "setting": "[3]; peptide 500 µg/mL", "value": 100, "unit": "%"},
      {"measurement": "cells permeable to propidium iodide at sub-MIC levels", "setting": "[3]; peptide below its MIC against yeast", "value": "56–72%"},
      {"measurement": "cells permeable to propidium iodide at MIC levels and higher", "setting": "[3]; peptide equal to or greater than its MIC for yeast", "value": 100, "unit": "%"},
      {"measurement": "MIC against E. coli cells", "setting": "[4]", "value": "32 µg/mL and 32 ± 0 µg/mL"}
    ]}
  ]
}
